Reference: ChEMBL document CHEMBL1143419, “Safety and pharmacokinetics of Bevirimat (PA-457), a novel inhibitor of human immunodeficiency virus maturation, in healthy volunteers” (Antimicrob Agents Chemother, 2007)

Legend:
[1] = Drug concentration in healthy human urine assessed as unconjugated drug level at 250 mg, po administered as single dose after 48 hrs; assay type: ADME, organism-based; settings: read-out: Drug uptake
Homo sapiens [2] = assay: Dose normalized AUC (0 to infinity) in healthy human plasma at 100 mg, po administered as single dose; assay type: ADME, organism-based; design: dose 100 mg, time infinity, route oral; settings: in vivo
[3] = Tmax in healthy human plasma at 25 mg, po administered as single dose; assay type: ADME, organism-based
[4] = Half life in healthy human plasma at 25 mg, po administered as single dose; assay type: ADME, organism-based
Homo sapiens [5] = assay: Cmax in healthy human plasma after 250 mg oral dose, normalised for 70 kg subject; assay type: ADME, organism-based; design: dose 250 mg, route oral; settings: in vivo
Homo sapiens [6] = assay: Dose normalized AUC (0 to infinity) in healthy human plasma at 25 mg, po administered as single dose; assay type: ADME, organism-based; design: dose 25 mg, time infinity, route oral; settings: in vivo
Homo sapiens [7] = assay: Cmax in heathy human plasma after 100 mg oral dose, normalised for 70 kg subject; assay type: ADME, organism-based; design: dose 100 mg, route oral; settings: in vivo
[8] = Cmax in healthy human plasma at 50 mg, po administered as single dose; assay type: ADME, organism-based; design: dose 50 mg, route oral
[9] = Apparent oral clearance in healthy human plasma at 50 mg, po administered as single dose; assay type: ADME, organism-based
[10] = Half life in healthy human plasma at 50 mg, po administered as single dose; assay type: ADME, organism-based
[11] = Apparent oral clearance in healthy human plasma at 25 mg, po administered as single dose; assay type: ADME, organism-based
[12] = Drug concentration in healthy human urine assessed as conjugated drug level at 250 mg, po administered as single dose after 48 hrs; assay type: ADME, organism-based; settings: in vivo
Homo sapiens [13] = assay: Cmax in healthy human plasma after 50 mg oral dose, normalised for 70 kg subject; assay type: ADME, organism-based; design: dose 50 mg, route oral; settings: in vivo
Homo sapiens [14] = assay: Toxicity in healthy human assessed as adverse event occurrence at 50 mg, po administered as single dose; assay type: organism-based; settings: in vivo
[15] = Apparent oral clearance in healthy human plasma at 100 mg, po administered as single dose; assay type: ADME, organism-based
Homo sapiens [16] = assay: Toxicity in healthy human assessed as adverse event occurrence at 25 mg, po administered as single dose; assay type: organism-based; settings: in vivo
[17] = Half life in healthy human plasma at 250 mg, po administered as single dose; assay type: ADME, organism-based
Homo sapiens [18] = assay: Dose normalized AUC (0 to infinity) in healthy human plasma at 50 mg, po administered as single dose; assay type: ADME, organism-based; design: dose 50 mg, time infinity, route oral; settings: in vivo
[19] = Cmax in healthy human plasma at 250 mg, po administered as single dose; assay type: ADME, organism-based; design: dose 250 mg, route oral
[20] = Tmax in healthy human plasma at 100 mg, po administered as single dose; assay type: ADME, organism-based
Homo sapiens [21] = assay: Cmax in healthy human plasma after 25 mg oral dose, normalised for 70 kg subject; assay type: ADME, organism-based; design: dose 25 mg, route oral; settings: in vivo
Homo sapiens [22] = assay: Toxicity in healthy human assessed as adverse event occurrence at 250 mg, po administered as single dose; assay type: organism-based; settings: in vivo
[23] = AUC (0 to infinity) in healthy human plasma at 25 mg, po administered as single dose; assay type: ADME, organism-based; design: dose 25 mg, time infinity, route oral
Homo sapiens [24] = assay: Toxicity in healthy human assessed as adverse event occurrence at 100 mg, po administered as single dose; assay type: organism-based; settings: in vivo
[25] = AUC (0 to infinity) in healthy human plasma at 250 mg, po administered as single dose; assay type: ADME, organism-based; design: dose 250 mg, time infinity, route oral
[26] = Tmax in healthy human plasma at 250 mg, po administered as single dose; assay type: ADME, organism-based
[27] = Apparent oral clearance in healthy human plasma at 250 mg, po administered as single dose; assay type: ADME, organism-based
[28] = AUC (0 to infinity) in healthy human plasma at 100 mg, po administered as single dose; assay type: ADME, organism-based; design: dose 100 mg, route oral, time infinity
[29] = AUC (0 to infinity) in healthy human plasma at 50 mg, po administered as single dose; assay type: ADME, organism-based; design: dose 50 mg, route oral, time infinity
Homo sapiens [30] = assay: Dose normalized AUC (0 to infinity) in healthy human plasma at 250 mg, po administered as single dose; assay type: ADME, organism-based; design: dose 250 mg, route oral, time infinity; settings: in vivo
[31] = Half life in healthy human plasma at 100 mg, po administered as single dose; assay type: ADME, organism-based
[32] = Cmax in healthy human plasma at 25 mg, po administered as single dose; assay type: ADME, organism-based; design: dose 25 mg, route oral
[33] = Tmax in healthy human plasma at 50 mg, po administered as single dose; assay type: ADME, organism-based

- dose excreted at 48 h [1]: 0.82%
- AUC (Homo sapiens [2]): 1014 µg·h/mL
- Tmax [3]: 1.75 h
- half-life [4]: 55.8 h
- Cmax (Homo sapiens [5]): 31100 ng/mL
- AUC (Homo sapiens [6]): 170.2 µg·h/mL
- Cmax (Homo sapiens [7]): 14900 ng/mL
- Cmax [8]: 6060 ng/mL
- CL/F [9]: 2.76 mL/h/kg
- half-life [10]: 56.7 h
- CL/F [11]: 2.89 mL/h/kg
- Drug uptake [12]: 0.82 %ID
- Cmax (Homo sapiens [13]): 7300 ng/mL
- CL/F [15]: 1.75 mL/h/kg
- half-life [17]: 69 h
- AUC (Homo sapiens [18]): 362.1 µg·h/mL
- Cmax [19]: 30000 ng/mL
- Tmax [20]: 2 h
- Cmax (Homo sapiens [21]): 2800 ng/mL
- AUC(0-inf) [23]: 151 µg·h/mL
- AUC(0-inf) [25]: 1800 µg·h/mL
- Tmax [26]: 2.5 h
- CL/F [27]: 2.43 mL/h/kg
- AUC(0-inf) [28]: 983 µg·h/mL
- AUC(0-inf) [29]: 312 µg·h/mL
- AUC (Homo sapiens [30]): 2221.8 µg·h/mL
- half-life [31]: 75.4 h
- Cmax [32]: 2240 ng/mL
- Tmax [33]: 1 h
Structure (SMILES): C=C(C)[C@@H]1CC[C@]2(C(=O)O)CC[C@]3(C)[C@H](CC[C@@H]4[C@@]5(C)CC[C@H](OC(=O)CC(C)(C)C(=O)O)C(C)(C)[C@@H]5CC[C@]43C)[C@@H]12 [BEVIRIMAT]
- Activity (Homo sapiens [14]): 16.7%
- Activity (Homo sapiens [16]): 16.7%
- Activity (Homo sapiens [22]): 33.3%
- Activity (Homo sapiens [24]): 50%
